This experiment relates to fibrin. Kind of experiment: Direct binding ELISA on fibrin-coated microtiter plates. As for the experimental part: The preparation of fibrin coated microtiter plates was adapted from a method described by Christman et al., Biochim. Biophys. Acta. […] Microtiter (Immulon) plates were coated with fibrinogen at a concentration of 50-1000 ng/well/0.1 ml of Tris buffered saline (TBS). The plates were dried for 24 hours at 37° C. and 0.1 ml of thrombin (20 NIH units/100 ml) containing TRASYLOL™ (aprotinin) (400 K.I units/100 ml) in TBS was added to each well and the plates incubated for 2 hours at 37° C. Each well is washed one time with PBS and the plates are blocked for 1.5 hours with 1% BSA in TBS to prevent non-specific binding. A constant concentration of fibronectin and the 11 kDa fibrin-binding polypeptide (500 ng/0.1 ml) in 50 mM Tris-HCl, 0.1M NaCl, pH 7.6 (FBB) were incubated separately with fibrin coated microtiter wells (50-1000 ng) for 1 hr at room temperature (23° C.).
The wells were washed three times with FBB containing 0.05% Tween 20 (FBBT) and incubated for 1 hour with 0.05 ml of the a polyclonal anti-fibronectinantiserum (Calbiochem) or the purified IgG fraction of anti-11 kDa rabbit antisera, respectively, at a concentration of 1 μg/ml in FBBT containing 0.1% BSA (FBBT/BSA). Following three washes with FBBT, the wells were incubated with 0.05 ml of alkaline phosphatase labeled goat anti-rabbit IgG (TAGO) at a concentration of 2 μg/ml in FBBT/BSA, for 1 hour. The reaction was developed with 0.05 ml of […] p-nitrophenyl phosphate (Sigma phosphatase substrate tablets) in 10% diethanolamine, pH 9.8 containing 1 mM MgCl2.
2. […] Binding of ^4 F1.^5 F1 to fibrin coated microtiter plates was examined by ELISA as described above. Microtiter wells were coated with fibrin (50-1000 ng) and blocked, as described earlier, and incubated with the module pair ^4 F1.^5 F1 (500 ng/0.1 ml or 1000 ng/0.1 ml in FBB) for 1 hour, at room temperature.
Fibrin-binding activity was also assessed by an ELISA. Fn was reacted with fibrin-coated microtiter plates and bound Fn was determined by incubation with a polyclonal rabbit anti-Fn antiserum followed by alkaline phosphatase-labeled anti-rabbit Ig.

We go through one substance from patent publication US5792742A, “Fibrin-binding peptide fragments of fibronectin” (New York University, priority 1994, dated 1998).

On to “11 kDa FBP: 11 kDa C-terminal proteolytic (subtilisin) fibrin-binding fragment of human plasma fibronectin, residues 2123-2232 of SEQ ID NO:1”, for which the “amount bound relative to intact fibronectin on a mole-per-mole basis” value is listed as 20 times and the “amount giving maximum binding per 550 ng of fibrin” value is reported as “approximately 500 ng”. For the same substance, the “binding to fibrin-coated wells” value (ELISA, room temperature, 1 hr) is reported as “bound to the fibrin-coated wells in a concentration dependent manner”.
